Measurements: the CheMixHub viscosity set
± gives the uncertainty stated by the source.

Assay: xn = mol fraction of the nth substance listed

C1=Cc2cccc3cccc1c23 + CO
viscosity [mPa·s], 101 kPa
Settings	298.15 K	303.15 K	308.15 K	313.15 K	318.15 K
x1 = 0.00471	0.5715 ± 0.014	0.5301 ± 0.013	0.494 ± 0.012	0.4598 ± 0.012	0.436 ± 0.011
x1 = 0.00731	–	0.5362 ± 0.013	0.5036 ± 0.013	0.4714 ± 0.012	0.4405 ± 0.011

CC1(C)S[C@@H]2[C@H](NC(=O)[C@H](N)c3ccc(O)cc3)C(=O)N2[C@H]1C(=O)O + O
viscosity [mPa·s], 101 kPa
Settings	x1 = 9e-06	x1 = 1.8e-05	x1 = 2e-05	x1 = 3.2e-05	x1 = 3.6e-05	x1 = 5e-05	x1 = 6.8e-05
305.15 K	0.7741 ± 0.016	0.7672 ± 0.016	0.7642 ± 0.02	0.7659 ± 0.02	0.7708 ± 0.016	0.7668 ± 0.02	0.7686 ± 0.02
310.15 K	0.7042 ± 0.016	0.7023 ± 0.016	0.6984 ± 0.018	0.6991 ± 0.018	0.7032 ± 0.016	0.7014 ± 0.018	0.7026 ± 0.018
315.15 K	0.6458 ± 0.016	0.6448 ± 0.016	0.6386 ± 0.017	0.6392 ± 0.017	0.6469 ± 0.016	0.6401 ± 0.017	0.6421 ± 0.017

CCCCCCCCCCCCOC(C)=O + CCCCCC
303.15 K, 101.3 kPa
Settings	viscosity [mPa·s]
x1 = 0.1919	0.5038 ± 0.0036
x1 = 0.3182	0.7197 ± 0.005
x1 = 0.4783	1.079 ± 0.0074
x1 = 0.522	1.2 ± 0.0083
x1 = 0.748	1.958 ± 0.014

Oc1cccc(O)c1 + CCCCO
Settings	viscosity [mPa·s]
293.15 K, 101 kPa, x1 = 0.28	19.75 ± 0.1

NCCN1CCNCC1 + NCCO.O=CO
viscosity [mPa·s], 100 kPa
Settings	x2 = 0.2317	x2 = 0.3408	x2 = 0.4457	x2 = 0.5468	x2 = 0.6441	x2 = 0.7379	x2 = 0.8283
298.15 K	130.1 ± 14	250.1 ± 28	379.1 ± 45	466.9 ± 57	462.4 ± 56	357.8 ± 42	264.9 ± 30
303.15 K	80.27 ± 8.1	188.7 ± 20	266.6 ± 30	322.5 ± 37	323.3 ± 37	259 ± 29	196.6 ± 21
308.15 K	–	136.2 ± 14	191.3 ± 21	230.5 ± 26	234.9 ± 26	192 ± 21	149.1 ± 16
313.15 K	–	102.4 ± 11	141.7 ± 15	170 ± 18	173.6 ± 19	146.6 ± 16	115.8 ± 12
318.15 K	–	78.62 ± 8	106.8 ± 11	127.9 ± 13	131.8 ± 14	113.7 ± 12	91.74 ± 9.4
323.15 K	–	61.55 ± 6.2	83.63 ± 8.5	98.95 ± 10	102.1 ± 11	89.85 ± 9.2	74.36 ± 7.6

CC(=O)[O-].C[N+]1(CC2CO2)CCCC1=O (stereo unspecified) + CO
viscosity [mPa·s], 101 kPa
Settings	293.15 K	298.15 K	303.15 K	308.15 K	313.15 K
x1 = 0.036	0.71 ± 0.02	0.66 ± 0.02	0.62 ± 0.01	0.57 ± 0.01	0.52 ± 0.01
x1 = 0.0744	0.92 ± 0.02	0.85 ± 0.02	0.78 ± 0.02	0.72 ± 0.02	0.73 ± 0.02
x1 = 0.1088	1.12 ± 0.02	1.03 ± 0.02	0.94 ± 0.02	0.87 ± 0.02	0.8 ± 0.02
x1 = 0.2024	1.69 ± 0.04	1.52 ± 0.03	1.38 ± 0.03	1.26 ± 0.03	1.15 ± 0.03
x1 = 0.3033	2.35 ± 0.05	2.09 ± 0.05	1.87 ± 0.04	1.69 ± 0.04	1.53 ± 0.03
x1 = 0.4042	3.02 ± 0.07	2.66 ± 0.06	2.36 ± 0.05	2.1 ± 0.05	1.89 ± 0.04
x1 = 0.504	3.68 ± 0.08	3.22 ± 0.07	2.83 ± 0.06	2.51 ± 0.05	2.24 ± 0.05
x1 = 0.6015	4.28 ± 0.09	3.71 ± 0.08	3.25 ± 0.07	2.86 ± 0.06	2.54 ± 0.06
x1 = 0.7036	4.91 ± 0.11	4.23 ± 0.09	3.68 ± 0.08	3.23 ± 0.07	2.85 ± 0.06
x1 = 0.8051	5.51 ± 0.12	4.72 ± 0.11	4.09 ± 0.09	3.57 ± 0.08	3.14 ± 0.07
x1 = 0.9086	6.14 ± 0.14	5.21 ± 0.12	4.49 ± 0.1	3.9 ± 0.09	3.42 ± 0.08

NCCNCCN + CCCCCCCCCCO
viscosity [mPa·s], 101 kPa
Settings	298.15 K	303.15 K	308.15 K
x1 = 0.0564	12.02 ± 0.26	9.924 ± 0.22	8.366 ± 0.18
x1 = 0.1003	12.52 ± 0.27	10.34 ± 0.23	8.775 ± 0.19
x1 = 0.1543	12.81 ± 0.28	10.46 ± 0.23	8.862 ± 0.2
x1 = 0.2007	12.75 ± 0.28	10.39 ± 0.23	8.738 ± 0.19
x1 = 0.259	12.43 ± 0.27	10.11 ± 0.22	8.451 ± 0.19
x1 = 0.3083	12 ± 0.26	9.746 ± 0.21	8.092 ± 0.18
x1 = 0.4061	10.91 ± 0.24	8.874 ± 0.2	7.255 ± 0.16
x1 = 0.5034	9.787 ± 0.21	7.869 ± 0.17	6.538 ± 0.14
x1 = 0.6067	8.422 ± 0.18	6.913 ± 0.15	5.779 ± 0.13
x1 = 0.7075	7.345 ± 0.16	6.087 ± 0.13	5.117 ± 0.11
x1 = 0.8062	6.406 ± 0.14	5.281 ± 0.12	4.552 ± 0.099
x1 = 0.852	6.037 ± 0.13	4.932 ± 0.11	4.298 ± 0.093
x1 = 0.9067	5.656 ± 0.12	4.678 ± 0.1	4.065 ± 0.088
x1 = 0.9524	5.499 ± 0.12	4.556 ± 0.1	3.897 ± 0.085
